Numbered stars: 1 amine (or outer) side, 2 acyl side, 3 side chain; on linkers, the order of the positions; unused ones are H or OH. Square brackets hold non-standard residues; d marks the D form. Peptide text beside a SMILES is read from it. * marks the point of attachment. ξ: configuration not given here. d1Nal = N[C@H](Cc1cccc2ccccc12)C(=O)O; d2Nal = N[C@H](Cc1ccc2ccccc2c1)C(=O)O; dHis(π-Me) = Cn1cncc1C[C@@H](N)C(=O)O; d(aIle) = CC[C@H](C)[C@@H](N)C(=O)O; X12 = O=C([C@@H]1CCCNN1[*:1])[*:2]; Hyp = O=C(O)[C@@H]1C[C@@H](O)CN1; Pip(4-aza) = O=C(O)[C@@H]1CNCCN1; X6 = O=C([C@H]1CCCNN1[*:1])[*:2]; dNMeF = CN[C@H](Cc1ccccc1)C(=O)O; dPip(4-aza) = O=C(O)[C@H]1CNCCN1; dCha = N[C@H](CC1CCCCC1)C(=O)O; dChg = N[C@@H](C(=O)O)C1CCCCC1; dPhg = N[C@@H](C(=O)O)c1ccccc1; ξmTyr = NC(Cc1cccc(O)c1)C(=O)O; Chg = N[C@H](C(=O)O)C1CCCCC1; Phg = N[C@H](C(=O)O)c1ccccc1; Pip = O=C(O)[C@@H]1CCCCN1; dPip = O=C(O)[C@H]1CCCCN1; NMeA = CN[C@@H](C)C(=O)O; dNMeA = CN[C@H](C)C(=O)O; Boc = CC(C)(C)OC(=O)*; Bn = c1ccc(C*)cc1

The first experiment deals with T1, uterine OT receptors (Rattus norvegicus, UniProt P70536).
T1 construct: from tissue; host or cells: uterus of DES-treated rats, crude membranes
T1 sequence (P70536 1-388): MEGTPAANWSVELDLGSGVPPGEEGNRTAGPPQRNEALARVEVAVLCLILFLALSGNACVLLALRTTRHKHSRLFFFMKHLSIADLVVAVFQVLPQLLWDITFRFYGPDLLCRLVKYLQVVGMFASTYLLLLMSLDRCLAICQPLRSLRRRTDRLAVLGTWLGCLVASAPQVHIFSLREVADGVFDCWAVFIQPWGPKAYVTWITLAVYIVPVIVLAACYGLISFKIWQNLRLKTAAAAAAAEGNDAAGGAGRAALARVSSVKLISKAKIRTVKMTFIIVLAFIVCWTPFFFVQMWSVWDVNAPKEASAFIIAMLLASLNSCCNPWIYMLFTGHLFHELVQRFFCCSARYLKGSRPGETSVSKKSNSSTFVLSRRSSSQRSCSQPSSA
Put plainly: [^3 H]OT binding to uterine OT receptors, crude membrane preparation of uteri from DES-treated rats. Particulars: 1 h; @ 10 (nM); read-out: [^3 H]OT: percent inhibition of radioligand at the given concentration. As for the experimental part:
Competition studies were conducted at equilibrium (60 minutes; 22° C.) using 1 nM [^3 H]OT in the following assay buffer: 50 mM Tris-HCl, 5 mM MgCl2, and 0.1% BSA, pH 7.4.
As to `CC[C@H](C)[C@@H]1NC(=O)[C@@H](Cc2cccc3ccccc23)NC(=O)[C@@H]2CCCN2C(=O)[C@@H](Cc2c[nH]cn2)NC(=O)[C@@H]2CCCCN2C(=O)[C@H]2CCCCN2C1=O` [Example 11, Cyclo[D-a-naphthalalanyl-L-isoleucyl-D-pipecolyl-L-pipecolyl-D-histidyl-L-prolyl]] (cyclo(I[dPip][Pip][dH]P[d1Nal])), the inhibition at 0.01 µM worked out at 39%.

The same experiment, now with this note: 1 h; @ 1,000 (nM); read-out: [^3 H]OT: percent inhibition of radioligand at the given concentration.
With `CC[C@H](C)[C@@H]1NC(=O)C(Cc2cccc(O)c2)NC(=O)[C@@H]2CCCN2C(=O)[C@@H](Cc2ccccc2)N(C)C(=O)[C@H](CCCCNC(=O)OC(C)(C)C)NC(=O)[C@H]2CCCCN2C1=O` (stereo partly drawn) [Example 143, C-[D,L-meta-Tyrosinyl-L-isoleucyl-D-pipecolyl-L-(N-t-butyloxycarbonyl)lysyl-D-(N-methyl)phenylalanyl-L-prolyl]] (cyclo(I[dPip]K(Boc)[dNMeF]P[ξmTyr])), the inhibition at 1 µM is 68%.
Same read-out and setting: as for `CC[C@H](C)[C@@H]1NC(=O)[C@@H](Cc2ccccc2)NC(=O)[C@@H]2CCCN2C(=O)[C@@H](Cc2cncn2C)NC(=O)[C@@H]2CNCCN2C(=O)[C@H]2CCCCN2C1=O` [Example 178, c-[D-Phenylalany-L-isoleucinyl-D-pipecolyl-L-piperazin-2-yl-D-(N^immethyl)histidinyl-L-prolyl]] (cyclo(I[dPip][Pip(4-aza)][dHis(π-Me)]P[dF])), the figure is 77%.

The same experiment, now with this note: @ 1,000 (nM).
Consider “c-[D-Phenylalanyl-L-isoleucinyl-D-pipecolyl-D-piperazin-2-yl(4-Cbz)-L-(BOM)histidyl-L-prolyl] [Example 93]”, for which the “[^3 H]OT: percent inhibition of radioligand at the given concentration” value stood at 42%.

Staying with this experiment, now noted: rat uterus membranes, 1 nM [^3 H]OT; read-out: Receptor Binding Results IC50 (nM) [^3 H]OT.
The IC50 is the concentration needed to halve the response being measured. In the case of `CC[C@H](C)[C@@H]1NC(=O)[C@@H](Cc2ccccc2)NC(=O)[C@@H]2CCCN2C(=O)[C@@H](Cc2ccccc2)N(C)C(=O)[C@@H]2CCCN2C(=O)[C@H]2CCCN2C1=O` [Example 52, c-[D-Phenylalanyl-L-isoleucyl-D-prolyl-L-prolyl-N-methyl-D-phenylalanyl-L-prolyl]] (cyclo([dNMeF]P[dF]I[dP]P)), the IC50 stood at 3400 nM.
The same measure, in the same setting: as for `CC[C@H](C)[C@@H]1NC(=O)[C@@H](Cc2ccccc2)NC(=O)CNC(=O)[C@@H](CCC(N)=O)NC(=O)[C@@H]2CCCN2C(=O)[C@H]2CCCN2C1=O` [Example 57] (cyclo([dF]I[dP]P[dQ]G)), the figure is above 10000 nM; as for `CC[C@H](C)[C@@H]1NC(=O)[C@@H](Cc2ccccc2)NC(=O)[C@@H]2CCCN2C(=O)[C@@H](Cc2ccccc2)NC(=O)[C@H](CC(N)=O)NC(=O)[C@H](CCC(N)=O)NC1=O` [Example 100] (cyclo([dF]IQN[dF]P)), 5080 nM; as for `CC[C@H](C)[C@@H]1NC(=O)[C@@H](CC2CCCCC2)NC(=O)[C@@H]2CCCN2C(=O)[C@@H](Cc2ccccc2)NC(=O)[C@@H]2CCCN2C(=O)[C@H]2CCCN2C1=O` [Example 55] (cyclo([dCha]I[dP]P[dF]P)), 2500 nM.
The same measure, in the same setting: as for `CC[C@H](C)[C@@H]1NC(=O)[C@@H](Cc2ccccc2)NC(=O)[C@@H]2CCCN2C(=O)[C@@H](Cc2ccccc2)NC(=O)[C@H](C)NC(=O)[C@@H](C)NC1=O` [Example 51, c-[D-Phenylalanyl-L-isoleucyl-D-alanyl-L-alanyl-D-phenylalanyl-L-prolyl]] (cyclo(A[dF]P[dF]I[dA])), the figure is above 10000 nM.
The same measure, in the same setting: the result for `CC[C@H](C)[C@@H]1NC(=O)[C@@H](Cc2ccccc2)NC(=O)[C@@H]2CCCN2C(=O)[C@@H](Cc2ccccc2)NC(=O)[C@@H]2C[C@@H](O)CN2C(=O)[C@H]2CCCN2C1=O` [Example 71, c-[D-Phenylalanyl-L-isoleucyl-D-prolyl-L-trans-hydroxyprolyl-D-phenylalanyl-L-prolyl]] (cyclo([Hyp][dF]P[dF]I[dP])) reads above 10000 nM; that for `C[C@@H](O)[C@@H]1NC(=O)[C@@H](Cc2ccccc2)NC(=O)[C@@H]2CCCN2C(=O)[C@@H](Cc2ccccc2)NC(=O)[C@@H]2CCCN2C(=O)[C@H]2CCCN2C1=O` [Example 73, c-[D-Phenylalanyl-L-threoninyl-D-prolyl-L-prolyl-D-phenylalanyl-L-prolyl]] (cyclo([dF]P[dF]T[dP]P)), above 10000 nM.
As to `CC[C@H](C)[C@@H]1NC(=O)[C@@H](Cc2ccccc2)NC(=O)[C@@H]2CCCN2C(=O)[C@@H](Cc2ccccc2)NC(=O)[C@H](c2ccccc2)NC(=O)[C@@H](c2ccccc2)NC1=O` [Example 70, c-[D-Phenylalanyl-L-isoleucyl-D-phenylglycinyl-L-phenylglycinyl-D-phenylalanyl-L-prolyl]] (cyclo(I[dPhg][Phg][dF]P[dF])), the IC50 was above 10000 nM.
On the same count and under the same terms, the result for `CC[C@H](C)[C@@H]1NC(=O)[C@@H](Cc2ccccc2)NC(=O)[C@@H]2CCCN2C(=O)[C@@H](Cc2ccccc2)NC(=O)[C@H](C)N(C)C(=O)[C@@H](C)N(C)C1=O` [Example 54, c-[D-Phenylalanyl-L-isoleucyl-N-methyl-D-alanyl-N-methyl-L-alanyl-D-phenylalanyl-L-prolyl]] (cyclo(I[dNMeA][NMeA][dF]P[dF])) reads 3000 nM; that for `CC[C@@H](C)[C@H]1NC(=O)[C@H](Cc2ccccc2)NC(=O)[C@H]2CCCN2C(=O)[C@H](Cc2ccccc2)NC(=O)[C@H]2CCCN2C(=O)[C@@H]2CCCN2C1=O` [Example 60, c-[L-Phenylalanyl-D-isoleucyl-L-prolyl-D-prolyl-L-phenylalanyl-D-prolyl]] (cyclo(F[dI]P[dP]F[dP])), above 10000 nM.
Same read-out and setting: as for `CC[C@H](C)[C@@H]1NC(=O)[C@@H](Cc2ccccc2)NC(=O)[C@@H]2CCCN2C(=O)[C@@H](Cc2ccccc2)NC(=O)[C@@H]2CCCN2C(=O)[C@H]2CCCN2C1=O` [Example 53, c-[D-Phenylalanyl-L-isoleucyl-D-prolyl-L-prolyl-D-phenylalanyl-L-prolyl]] (cyclo([dF]P[dF]I[dP]P)), the figure is 2600 nM; as for `CC[C@H](C)[C@@H]1NC(=O)[C@@H](Cc2ccccc2)NC(=O)[C@@H]2CCCN2C(=O)[C@@H](CCC(N)=O)NC(=O)[C@@H]2CCCN2C(=O)[C@H]2CCCN2C1=O` [Example 68, c-[D-Phenylalanyl-L-isoleucyl-D-prolyl-L-prolyl-D-α-glutaminyl-L-prolyl]] (cyclo([dF]I[dP]P[dQ]P)), above 10000 nM; as for `O=C1N[C@H](Cc2ccccc2)C(=O)N2CCC[C@H]2C(=O)N[C@H](Cc2ccccc2)C(=O)N2CCC[C@H]2C(=O)N2CCC[C@@H]2C(=O)N2CCC[C@@H]12` [Example 64, c-[D-Phenylalanyl-L-prolyl-D-prolyl-L-prolyl-D-phenylalanyl-L-prolyl]] (cyclo([dF]P[dF]P[dP]P)), above 10000 nM.
Consider `CC[C@H](C)[C@@H]1NC(=O)[C@@H](Cc2ccc3ccccc3c2)NC(=O)[C@@H]2CCCN2C(=O)[C@@H](Cc2c[nH]cn2)NC(=O)[C@H]2CNCCN2C(=O)[C@H]2CCCCN2C1=O` [Example 161, c-[D-2-Naphthylalanyl-L-isoleucyl-D-pipecolyl-D-piperazin-2-yl-D-histidyl-L-prolyl]] (cyclo(I[dPip][dPip(4-aza)][dH]P[d2Nal])), for which the IC50 was 6.7 nM.
On the same count and under the same terms, as for `CC[C@H](C)[C@@H]1NC(=O)[C@@H](Cc2ccccc2)NC(=O)[C@@H]2CCCN2C(=O)[C@@H]([C@H](C)O)NC(=O)[C@@H]2CCCN2C(=O)[C@H]2CCCN2C1=O` [Example 62, c-[D-Phenylalanyl-L-isoleucyl-D-prolyl-L-prolyl-D-threoninyl-L-prolyl]] (cyclo([dT]P[dF]I[dP]P)), the figure is above 1000 nM; as for `CCOc1ccc(C[C@H]2NC(=O)[C@@H]3CCCN3C(=O)[C@@H](Cc3ccccc3)NC(=O)[C@H](CC(N)=O)NC(=O)[C@@H](CCC(N)=O)NC(=O)[C@@H]([C@@H](C)CC)NC2=O)cc1` [Example 101] (cyclo(N[dF]P[dY](Et)[d(aIle)][dQ])), above 10000 nM.
In the case of `CC[C@H](C)[C@@H]1NC(=O)[C@@H](Cc2ccc(O)cc2)NC(=O)[C@@H]2CCCN2C(=O)[C@@H](Cc2ccccc2)NC(=O)[C@@H]2CCCNN2C(=O)[C@H]2CCCNN2C1=O` [Example 97] (cyclo([dY]I[X6][X12][dF]P)), the IC50 is above 10000 nM.
The same measure, in the same setting: as for `C[C@@H](OCc1ccccc1)[C@@H]1NC(=O)[C@@H](Cc2ccccc2)NC(=O)[C@@H]2CCCN2C(=O)[C@@H](Cc2ccccc2)NC(=O)[C@@H]2CCCN2C(=O)[C@H]2CCCN2C1=O` [Example 72, c-[D-Phenylalanyl-L-(O-benzyl)-threoninyl-D-prolyl-L-prolyl-D-phenylalanyl-L-prolyl]] (cyclo([dF]P[dF]T(Bn)[dP]P)), the figure is above 10000 nM.
Take `CC[C@H](C)[C@@H]1NC(=O)[C@@H](Cc2ccccc2)NC(=O)[C@@H]2CCCN2C(=O)[C@@H](Cc2ccccc2)NC(=O)[C@H](Cc2c[nH]cn2)NC(=O)[C@@H](Cc2c[nH]cn2)NC1=O` [Example 69, c[D-Phenylalanyl-L-isoleucyl-D-histidinyl-L-histidinyl-D-phenylalanyl-L-prolyl]] (cyclo(H[dF]P[dF]I[dH])): the IC50 is 10000 nM.
Still for that read-out and setting: as for `CC[C@H](C)[C@@H]1NC(=O)[C@@H](Cc2ccccc2)NC(=O)[C@@H]2CCCN2C(=O)[C@@H](Cc2ccccc2)NC(=O)[C@H](C2CCCCC2)NC(=O)[C@@H](C2CCCCC2)NC1=O` [Example 65] (cyclo([Chg][dF]P[dF]I[dChg])), the figure is above 10000 nM.
